Experimental data published in publication PMC6934184, “Selective DNA-PKcs inhibition extends the therapeutic index of localized radiotherapy and chemotherapy” (The Journal of Clinical Investigation, 2019).

Molecular target: T1, SRC N1 (Homo sapiens, UniProt P12931)
T1 construct: purchased Thermo Fisher Scientific (Life Technologies) SelectScreen
Experiment: SelectScreen Z'LYTE
Type: biochemical
Summary of the method: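 Percent values come from Thermo SelectScreen profiling of NU5455, combining activity and binding assays. CSF1R was run in Z'LYTE format at Km app ATP, and CAMK1 in Adapta format with ATP listed at 10.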

T1 sequence (P12931 1-542 isoform P12931-2): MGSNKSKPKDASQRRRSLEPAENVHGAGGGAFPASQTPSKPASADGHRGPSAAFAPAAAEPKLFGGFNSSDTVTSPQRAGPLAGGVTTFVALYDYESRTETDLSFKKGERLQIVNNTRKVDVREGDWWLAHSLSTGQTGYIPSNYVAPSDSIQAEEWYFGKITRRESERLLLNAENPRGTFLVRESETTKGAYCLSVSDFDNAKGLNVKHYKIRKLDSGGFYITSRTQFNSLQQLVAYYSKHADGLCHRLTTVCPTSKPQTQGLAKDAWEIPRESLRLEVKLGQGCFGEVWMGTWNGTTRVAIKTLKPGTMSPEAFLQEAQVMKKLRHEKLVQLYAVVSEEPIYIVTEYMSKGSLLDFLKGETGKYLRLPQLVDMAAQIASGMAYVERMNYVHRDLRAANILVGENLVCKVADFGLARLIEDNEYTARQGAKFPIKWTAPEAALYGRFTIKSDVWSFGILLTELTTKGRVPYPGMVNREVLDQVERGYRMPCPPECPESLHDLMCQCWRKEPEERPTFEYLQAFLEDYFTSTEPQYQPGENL

CN(C(=O)CN1CCOCC1)c1ccc2sc3c(-c4cccc5c(=O)cc(N6CC7CCC(C6)O7)oc45)cccc3c2c1 [NU5455]
inhibition at 1 µM: 3.9%
